Starred links: 1 amine or outer side, 2 acyl side, 3 side chain; linkers in the order of their positions; H or OH if unused. Positions of bridges follow the written chain, without caps; N, C: chain ends. Non-standard residues stand in square brackets, D forms with d. Residues, ends and D or L forms follow the SMILES beside them. Chains are numbered I, II in the order given. Actinocin(9to1) = Cc1c2oc3c(C)ccc(C(=O)[*:1])c3nc-2c(C(=O)[*:2])c(N)c1=O; NMeV = CN[C@H](C(=O)O)C(C)C; Sar = CNCC(=O)O
Assays:
HeLa cells [1] = test: Comparison with single layer culture method in cell proliferation test using agent for inducing apoptosis; type: cell-based, human; settings: day 4
Procedure: This aqueous solution was sterilized at 121° C. for 20 min in an autoclave.
Each plate was cultured by being stood still in a CO2 incubator (37° C., 5% CO2). […] To the culture medium on day 4 was added an ATP reagent (150 μL) (CellTiter-Glo (registered trade mark) Luminescent Cell Viability Assay, manufactured by Promega) to give a suspension, which was stood for about 10 min at room temperature, and the luminescence intensity (RLU value) was measured by FlexStation3 (manufactured by Molecular Devices), and the number of viable cells was measured by subtracting the luminescence value of the medium alone. For WST-8 measurement, a WST-8 solution (manufactured by is DOJINDO Laboratories, 15 μL) was added, the mixture was incubated at 37° C. for 100 min, the absorbance at 450 nm was measured by an absorbance spectrometer (manufactured by Molecular Devices, SPECTRA MAX 190), and the number of viable cells was measured by subtracting the absorbance of the medium alone.

HeLa cells [2] = test: Cell proliferation test using various anticancer drugs; type: cell-based, human; settings: 1 μM; HeLa cells 5 days later; DAG 0.030% medium
Procedure: This aqueous solution was sterilized at 121° C. for 20 min in an autoclave. […] The anticancer drug used was Adriamycin (manufactured by WAKO), Paclitaxel (manufactured by WAKO) or Mitomycin C (manufactured by WAKO).
Successively, this plate was cultured by being stood still in a CO2 incubator (37° C., 5% CO2) for 7 days. After culturing for 3, 5, 7 days, to the culture medium was added a WST-8 solution (manufactured by DOJINDO Laboratories, 20 μL), and the mixture was incubated at 37° C. for 100 min. The absorbance at 450 nm was measured by an absorbance spectrometer (manufactured by Molecular Devices, SPECTRA MAX 190), and the number of viable cells was measured by subtracting the absorbance of the medium alone. The culture medium containing the cells after 5 days of culture was stirred with a pipette and the obtained stirred solution (20 μL) was mixed with Trypan Blue stain 0.4% (manufactured by Invitrogen, 20 μL) and the cell density was measured under a microscope.

[3] = 1 μM, deacylated gellan gum addition group (0.015%)
[4] = 1 μM, single layer culture group
[5] = 10 μM, deacylated gellan gum addition group (0.015%)
[6] = 10 μM, single layer culture group
[7] = 100 μM, deacylated gellan gum addition group (0.015%)
[8] = 100 μM, single layer culture group

SMILES | % Control of RLU value (ATP) (HeLa cells [1]; [3]) | % Control of absorbance at 450 nm (WST-8) (HeLa cells [1]; [3]) | % Control of RLU value (ATP) (HeLa cells [1]; [4]) | % Control of absorbance at 450 nm (WST-8) (HeLa cells [1]; [4]) | % Control of RLU value (ATP) (HeLa cells [1]; [5]) | % Control of absorbance at 450 nm (WST-8) (HeLa cells [1]; [5]) | % Control of RLU value (ATP) (HeLa cells [1]; [6]) | % Control of absorbance at 450 nm (WST-8) (HeLa cells [1]; [6]) | cell density (HeLa cells [2]) | % Control of RLU value (ATP) (HeLa cells [1]; [7]) | % Control of absorbance at 450 nm (WST-8) (HeLa cells [1]; [7]) | % Control of RLU value (ATP) (HeLa cells [1]; [8]) | % Control of absorbance at 450 nm (WST-8) (HeLa cells [1]; [8])
Cc1c2oc3c(C)ccc(C(=O)N[C@@H]4C(=O)N[C@H](C(C)C)C(=O)N5CCC[C@H]5C(=O)N(C)CC(=O)N(C)[C@@H](C(C)C)C(=O)O[C@@H]4C)c3nc-2c(C(=O)N[C@@H]2C(=O)N[C@H](C(C)C)C(=O)N3CCC[C@H]3C(=O)N(C)CC(=O)N(C)[C@@H](C(C)C)C(=O)O[C@@H]2C)c(N)c1=O [Actinomycin D] (I: T[dV]P[Sar][NMeV] / II: T[dV]P[Sar][NMeV]; ester I:1-I:C, II:1-II:C; linker I:N-II:N via Actinocin(9to1)) | 4 % Control | 3 % Control | 2 % Control | 2 % Control | 6 % Control | 12 % Control | 2 % Control | 4 % Control | – | – | – | – | –
COc1cccc2c1C(=O)c1c(O)c3c(c(O)c1C2=O)C[C@@](O)(C(=O)CO)C[C@@H]3O[C@H]1C[C@H](N)[C@H](O)[C@H](C)O1 [Adriamycin] | – | – | – | – | – | – | – | – | 0.6 10^4 cells/mL | – | – | – | –
C[C@@H]1C[C@@H]([C@H](O)CC2CC(=O)NC(=O)C2)C(=O)[C@@H](C)C1 [Cycloheximide] | – | – | – | – | 9 % Control | 4 % Control | 29 % Control | 21 % Control | – | 4 % Control | 1 % Control | 9 % Control | 7 % Control
C[C@@H]1C[C@H]2[C@@H]3CCC4=CC(=O)C=C[C@]4(C)[C@@]3(F)[C@@H](O)C[C@]2(C)[C@@]1(O)C(=O)CO [Dexamethasone] | 232 % Control | 184 % Control | – | – | 241 % Control | 173 % Control | 116 % Control | – | – | – | – | – | –
